Source: patent US20090111778A1, “2-Keto-Oxazoles as Modulators of Fatty Acid Amide Hydrolase” (priority 2005, published 2009)

Tests used:
human FAAH = biological target: T1, human FAAH (Homo sapiens, UniProt O00519); experiment: Assay Method 1: FAAH assay, hydrolysis of 3H-anandamide by homogenate of SK-N-MC cells transfected with human FAAH; type: biochemical; conditions: human FAAH; T84 or transfected SK-N-MC cell homogenate; 3H-AEA tracer 80 nM; rt 1 h; pH 9; read-out: Assay 1 IC50
T1 construct: expressed in transfected cells
T1 sequence (O00519 1-579): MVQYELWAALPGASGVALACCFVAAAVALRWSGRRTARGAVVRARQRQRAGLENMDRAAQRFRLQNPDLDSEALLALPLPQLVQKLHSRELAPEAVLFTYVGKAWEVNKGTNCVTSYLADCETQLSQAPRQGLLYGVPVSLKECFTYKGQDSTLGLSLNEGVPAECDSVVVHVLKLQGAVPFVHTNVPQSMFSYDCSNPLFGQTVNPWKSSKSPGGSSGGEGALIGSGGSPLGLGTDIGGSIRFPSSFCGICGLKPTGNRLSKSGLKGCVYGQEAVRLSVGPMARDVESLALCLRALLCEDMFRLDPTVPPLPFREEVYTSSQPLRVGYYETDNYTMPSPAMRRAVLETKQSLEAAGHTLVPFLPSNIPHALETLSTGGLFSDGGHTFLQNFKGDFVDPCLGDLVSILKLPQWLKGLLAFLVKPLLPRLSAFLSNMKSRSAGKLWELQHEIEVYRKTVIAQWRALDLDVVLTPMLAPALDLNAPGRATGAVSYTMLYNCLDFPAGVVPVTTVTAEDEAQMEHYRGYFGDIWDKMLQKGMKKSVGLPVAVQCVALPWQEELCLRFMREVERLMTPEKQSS
In short: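 Homogenate of SK-N-MC cells stably expressing human FAAH (G418-selected clones) incubated with compound and 80 nM [1-3H-ethanolamine]anandamide for 1 h at rt. Released 3H-ethanolamine separated from substrate by activated-charcoal filtration, then counted by scintillation.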

rat FAAH = biological target: T2, rat FAAH (Rattus norvegicus, UniProt P97612); experiment: Assay Method 2: FAAH assay, hydrolysis of 3H-anandamide by homogenate of SK-N-MC cells transfected with rat FAAH; type: biochemical; conditions: T84 or transfected SK-N-MC cell homogenate, 3H-AEA tracer 80 nM, rt 1 h, pH 9
T2 construct: expressed in transfected cells
T2 sequence (P97612 1-579): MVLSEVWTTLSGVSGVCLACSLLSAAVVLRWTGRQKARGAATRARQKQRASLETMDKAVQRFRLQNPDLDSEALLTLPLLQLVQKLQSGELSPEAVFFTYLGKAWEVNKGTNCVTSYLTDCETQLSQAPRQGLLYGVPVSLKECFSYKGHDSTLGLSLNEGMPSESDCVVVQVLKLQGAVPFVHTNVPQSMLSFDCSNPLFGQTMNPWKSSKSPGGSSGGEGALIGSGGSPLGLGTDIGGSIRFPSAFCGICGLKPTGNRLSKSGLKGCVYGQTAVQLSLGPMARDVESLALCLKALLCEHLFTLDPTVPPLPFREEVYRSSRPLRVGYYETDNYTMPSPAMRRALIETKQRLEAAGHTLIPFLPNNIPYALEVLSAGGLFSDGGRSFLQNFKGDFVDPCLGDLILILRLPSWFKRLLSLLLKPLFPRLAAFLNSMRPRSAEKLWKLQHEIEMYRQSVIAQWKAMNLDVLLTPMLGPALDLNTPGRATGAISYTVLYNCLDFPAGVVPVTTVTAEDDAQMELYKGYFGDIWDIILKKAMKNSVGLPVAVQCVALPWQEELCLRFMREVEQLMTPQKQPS
In short: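 Rat FAAH activity from homogenate of G418-selected, electroporated SK-N-MC clones was measured as release of radiolabelled ethanolamine from 3H-anandamide. After 1 h at rt, charcoal filtration retained substrate, and scintillation counting of the flow-through gave the read-out.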

| IC50 (human FAAH) | IC50 (rat FAAH) | SMILES |
| --- | --- | --- |
| 120 nM | 1600 nM | CCCS(=O)(=O)N1CCC(CCCC(=O)c2ncco2)CC1 [Example 57, 1-Oxazol-2-yl-4-[1-(propane-1-sulfonyl)-piperidin-4-yl]-butan-1-one] |
| 400 nM | 900 nM | CC(C)CC(=O)N1CCC(CCCC(=O)c2ncco2)CC1 [Example 26, 3-Methyl-1-[4-(4-oxazol-2-yl-4-oxo-butyl)-piperidin-1-yl]-butan-1-one] |
| 71 nM | 113 nM | O=C(CCCC1CCN(Cc2ccc(-c3ccccc3)c(F)c2)CC1)c1ncco1 [Example 138, 4-[1-(2-Fluoro-biphenyl-4-ylmethyl)-piperidin-4-yl]-1-oxazol-2-yl-butan-1-one] |
| 5 nM | 8 nM | Cc1cccc2cc(CN3CCC(CCCC(=O)c4ncco4)CC3)c(Cl)nc12 [Example 99, 4-[1-(2-Chloro-8-methyl-quinolin-3-ylmethyl)-piperidin-4-yl]-1-oxazol-2-yl-butan-1-one] |
| 400 nM | 700 nM | O=C(CCCC1CCN(C(=O)CCc2cccnc2)CC1)c1ncco1 [Example 47, 1-Oxazol-2-yl-4-[1-(3-pyridin-3-yl-propionyl)-piperidin-4-yl]-butan-1-one] |
| 230 nM | 635 nM | CC(C)CCC(=O)N1CCC(CCCC(=O)c2ncco2)CC1 [Example 51, 4-Methyl-1-[4-(4-oxazol-2-yl-4-oxo-butyl)-piperidin-1-yl]-pentan-1-one] |
| 2 nM | 21 nM | CC(C)(C)OC(=O)N1CCC(CCCC(=O)c2ncc(-c3ccco3)o2)CC1 [Example 120, 4-[4-(5-Furan-2-yl-oxazol-2-yl)-4-oxo-butyl]-Piperidine-1-carboxylic acid tert-butyl ester] |
| 1200 nM | 3000 nM | O=C(CCCC1CCN(Cc2cccnc2)CC1)c1ncco1 [Example 5, 1-Oxazol-2-yl-4-(1-pyridin-3-ylmethyl-piperidin-4-yl)-butan-1-one] |
| 705 nM | 165 nM | O=C(CCCC1CCN(S(=O)(=O)c2ccccc2)CC1)c1ncco1 [Example 59, 4-(1-Benzenesulfonyl-piperidin-4-yl)-1-oxazol-2-yl-butan-1-one] |
| 119 nM | 119 nM | O=C(CCCC1CCN(Cc2ccc(OC3CCCCC3)cc2)CC1)c1ncco1 [Example 134, 4-[1-(4-Cyclohexyloxy-benzyl)-piperidin-4-yl]-1-oxazol-2-yl-butan-1-one] |
| 3 nM | 5 nM | CC(C)c1ccc(CN2CCC(CCCC(=O)c3ncco3)CC2)cc1 [Example 22, 4-[1-(4-Isopropyl-benzyl)-piperidin-4-yl]-1-oxazol-2-yl-butan-1-one] |
| 1.8 nM | 27 nM | CC(C)(C)OC(=O)N1CCC(CCCC(=O)c2ncco2)CC1 [Example 1, 4-(4-Oxazol-2-yl-4-oxo-butyl)-piperidine-1-carboxylic acid tert-butyl ester] |
| 3 nM | 2 nM | O=C(CCCC1CCN(C(=O)OCc2ccccc2)CC1)c1ncco1 [Example 63, 4-(4-Oxazol-2-yl-4-oxo-butyl)-piperidine-1-carboxylic acid benzyl ester] |
| 109 nM | 130 nM | Cc1ccccc1CCC(=O)N1CCC(CCCC(=O)c2ncco2)CC1 [Example 45, 1-Oxazol-2-yl-4-[1-(3-o-tolyl-propionyl)-piperidin-4-yl]-butan-1-one] |
| 834 nM | 463 nM | Cc1cccc(CC(=O)N2CCC(CCCC(=O)c3ncco3)CC2)c1 [Example 39, 1-Oxazol-2-yl-4-[1-(2-m-tolyl-acetyl)-piperidin-4-yl]-butan-1-one] |
| 50 nM | 550 nM | CC(C)(C)c1ccc(CN2CCC(CCCC(=O)c3ncco3)CC2)cn1 [Example 139, 4-[1-(6-tert-Butyl-pyridin-3-ylmethyl)-piperidin-4-yl]-1-oxazol-2-yl-butan-1-one] |
| 848 nM | 889 nM | O=C(CCCC1CCN(C(=O)COc2ccccc2)CC1)c1ncco1 [Example 33, 1-Oxazol-2-yl-4-[1-(2-phenoxy-acetyl)-piperidin-4-yl]-butan-1-one] |
| 24 nM | 45 nM | O=C(CCCC1CCN(Cc2ccc(-c3ccccc3)cc2)CC1)c1ncco1 [Example 73, 4-(1-Biphenyl-4-ylmethyl-piperidin-4-yl)-1-oxazol-2-yl-butan-1-one] |
| 850 nM | 1000 nM | O=C(CCCC1CCN(Cc2ccc(F)cc2)CC1)c1ncco1 [Example 7, 4-[1-(4-Fluoro-benzyl)-piperidin-4-yl]-1-oxazol-2-yl-butan-1-one] |
| 10 nM | 380 nM | O=C(CCCC1CCN(Cc2ccc(C(F)(F)F)c(F)c2)CC1)c1ncco1 [Example 137, 4-[1-(3-Fluoro-4-trifluoromethyl-benzyl)-piperidin-4-yl]-1-oxazol-2-yl-butan-1-one] |
| 1300 nM | 5000 nM | COc1ccc(CN2CCC(CCCC(=O)c3ncco3)CC2)cn1 [Example 74, 4-[1-(6-Methoxy-pyridin-3-ylmethyl)-piperidin-4-yl]-1-oxazol-2-yl-butan-1-one] |
| 69 nM | 240 nM | COCCOC(=O)N1CCC(CCCC(=O)c2ncco2)CC1 [Example 65, 4-(4-Oxazol-2-yl-4-oxo-butyl)-piperidine-1-carboxylic acid 2-methoxy-ethyl ester] |
| 23 nM | 235 nM | O=C(CCCC1CCN(Cc2ccc(N3CCCCC3)nc2)CC1)c1ncco1 [Example 108, 1-oxazol-2-yl-4-[1-(3,4,5,6-tetrahydro-2H-[1,2′]bipyridinyl-5′-ylmethyl)-piperidin-4-yl]-butan-1-one] |
| 23 nM | 810 nM | CCCCCCCN1CCC(CCCC(=O)c2ncco2)CC1 [Example 126, 4-(1-Heptyl-piperidin-4-yl)-1-oxazol-2-yl-butan-1-one] |
| 400 nM | 2100 nM | Cc1cccc(CN2CCC(CCCC(=O)c3ncco3)CC2)c1C [Example 94, 4-[1-(2,3-Dimethyl-benzyl)-piperidin-4-yl]-1-oxazol-2-yl-butan-1-one] |

| SMILES | IC50 (human FAAH) | IC50 (rat FAAH) |
| --- | --- | --- |
| O=C(CCCC1CCN(C(=O)C2CCCCC2)CC1)c1ncco1 [Example 29, 4-(1-Cyclohexanecarbonyl-piperidin-4-yl)-1-oxazol-2-yl-butan-1-one] | 45 nM | 180 nM |
| Cc1ccccc1CN1CCC(CCCC(=O)c2ncco2)CC1 [Example 80, 4-[1-(2-Methyl-benzyl)-piperidin-4-yl]-1-oxazol-2-yl-butan-1-one] | 1200 nM | 2000 nM |
| CC(C)c1cccc(CN2CCC(CCCC(=O)c3ncco3)CC2)c1 [Example 140, 4-[1-(3-Isopropyl-benzyl)-piperidin-4-yl]-1-oxazol-2-yl-butan-1-one] | 1 nM | 3 nM |
| O=C(CCCC1CCN(Cc2ccc(Br)cc2)CC1)c1ncco1 [Example 91, 4-[1-(4-Bromo-benzyl)-piperidin-4-yl]-1-oxazol-2-yl-butan-1-one] | 45 nM | 270 nM |
| CC(C)(C)Oc1ccc(CN2CCC(CCCC(=O)c3ncco3)CC2)cc1 [Example 24, 4-[1-(4-tert-Butoxy-benzyl)-piperidin-4-yl]-1-oxazol-2-yl-butan-1-one] | 32 nM | 18 nM |
